# In PubChem BioAssay (NCI):
#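 Method: 48-hour compound exposure of cells in 96-well plates, five concentrations, linear interpolation of endpoints. TGI is the concentration that stops growth completely.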
# Assays:
# Assay in all cases: NCI tumour cell line growth inhibition, 48 h
# DLD-1 colon = test system: DLD-1 colon
# DMS 114 small cell lung = test system: DMS 114 small cell lung
# HOP-18 NSCLC = test system: HOP-18 NSCLC
# HOP-62 NSCLC = test system: HOP-62 NSCLC
# KM20L2 colon = test system: KM20L2 colon
# MALME-3M melanoma = test system: MALME-3M melanoma
# NCI-H226 lung = test system: NCI-H226 lung
# P388/ADR leukemia = test system: P388/ADR leukemia
# SF-295 CNS = test system: SF-295 CNS
# SN12C renal = test system: SN12C renal
# SN12K1 renal = test system: SN12K1 renal
# SNB-78 CNS = test system: SNB-78 CNS
# BT-549 breast = test system: BT-549 breast
# DU-145 prostate = test system: DU-145 prostate
# HS 578T breast = test system: HS 578T breast
# MDA-MB-231 breast = test system: MDA-MB-231 breast
# MDA-MB-435 = test system: MDA-MB-435
# MDA-N = test system: MDA-N
# PC-3 prostate = test system: PC-3 prostate
# T-47D breast = test system: T-47D breast
SMILES,TGI (DLD-1 colon) [µM],TGI (DMS 114 small cell lung) [µM],TGI (HOP-18 NSCLC) [µM],TGI (HOP-62 NSCLC) [µM],TGI (KM20L2 colon) [µM],TGI (MALME-3M melanoma) [µM],TGI (NCI-H226 lung) [µM],TGI (P388/ADR leukemia) [µM],TGI (SF-295 CNS) [µM],TGI (SN12C renal) [µM],TGI (SN12K1 renal) [µM],TGI (SNB-78 CNS) [µM],TGI (BT-549 breast) [µM],TGI (DU-145 prostate) [µM],TGI (HS 578T breast) [µM],TGI (MDA-MB-231 breast) [µM],TGI (MDA-MB-435) [µM],TGI (MDA-N) [µM],TGI (PC-3 prostate) [µM],TGI (T-47D breast) [µM]
O=C(Nc1ccc(C2=NCCN2)cc1)c1cncc(C(=O)Nc2ccc(C3=NCCN3)cc2)c1,> 100,> 100,> 100,> 100,> 100,> 100,> 100,> 100,> 100,> 100,> 100,> 100,–,–,–,–,–,–,–,–
CCOC(=O)C(NC(C)=O)(Nc1ccc(F)cc1)C(F)(F)F (configuration not stated),–,–,–,–,–,–,–,–,> 100,> 100,–,–,> 100,> 100,> 100,> 100,> 100,> 100,> 100,81.5
